Measured values reported in PMC10247784, “Physiological activation of human and mouse bitter taste receptors by bile acids” (Communications Biology, 2023).
Several values for one entry are separate records, joined by “and”; a condition that tells them apart may be missing. Identical values can stand only once.

Target: T1, human TAS2R4 (Homo sapiens, UniProt Q9NYW5)
T1 construct: expressed in transfected cells; host or cells: HEK293T-Gα16gust44
T1 sequence (Q9NYW5 1-299): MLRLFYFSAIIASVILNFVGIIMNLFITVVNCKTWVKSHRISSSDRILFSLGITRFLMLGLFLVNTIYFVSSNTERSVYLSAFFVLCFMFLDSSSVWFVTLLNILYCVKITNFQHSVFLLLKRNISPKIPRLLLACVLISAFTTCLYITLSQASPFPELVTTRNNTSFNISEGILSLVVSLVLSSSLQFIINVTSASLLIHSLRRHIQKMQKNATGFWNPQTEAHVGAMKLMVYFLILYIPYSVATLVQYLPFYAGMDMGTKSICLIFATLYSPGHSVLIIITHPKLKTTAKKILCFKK
Assay: Calcium imaging assay (FLIPR), HEK293T-Gα16gust44 cells transfected with human TAS2R4
Format: cell-based
Description: This set of bile acids was chosen because of their commercial availability in high purities, their diversity within the class of bile acids and their previous detection and quantitation in human blood. Stock solutions were prepared in DMSO.
As basal growth medium for the HEK293T-Gα16gust44 cell line[17],[59] served Dulbecco’s modified eagle medium (DMEM) (Thermo Fisher Scientific, Darmstadt, Germany) supplemented with 10 % fetal bovine serum (Sigma-Aldrich, Steinheim, Germany), 2 mM L-glutamine (Sigma-Aldrich, Steinheim, Germany), 100 units/ml penicillin (Sigma Aldrich, Steinheim, Germany) and 100 µg/ml streptomycin (Sigma Aldrich, Steinheim, Germany). Growth conditions were 37 °C, 5 % CO2 and saturated air-humidity[60].
HEK293T-Gα16gust44 cells were seeded on poly-D-lysine (10 µg/ml) coated 96-well plates to reach a confluence of 40-60 % the next day. For transient transfection 150 ng of plasmid DNA containing the receptor of interest and 0.3 µl lipofectamine 2000 (Thermo Fisher Scientific, Darmstadt, Germany) per well were used and transfection took place according to the manual of lipofectamine 2000. […] The empty vector DNA (mock) was transfected as negative control[14],[41].
Cells were loaded using the calcium-sensitive fluorescent dye Fluo-4-AM (Abcam, Cambridge, Great Britain) in the presence of 2.5 mM probenecid (Sigma-Aldrich, Steinheim, Germany) the day after transfection[13],[41]. 1 h after loading, cells were washed with C1 buffer using a BioTek Cell Washer, incubated in the dark for half an hour and washed again. For automated agonist application and measurement of fluorescence changes, a FLIPR^TETRA device (Molecular Devices, San José, United States) was used. Viability of cells was tested by application of 100 nM Somatostatin 14 (Bachem, Bubendorf, Switzerland)[42].
Measured data were negative control corrected by subtracting the signal of the mock-transfected cells and exported to Microsoft Excel using the FLIPR software ScreenWorks 4.2. In Microsoft Excel software, standardization of maximum fluorescence intensities to the basal fluorescence and normalization to the buffer-only control was done to calculate the relative fluorescence changes (ΔF/F).
Initial screening experiments performed in duplicate wells were confirmed by at least one replication and representative traces were selected for display. All dose-response relationships were determined by three independent experiments (biological replicates) performed in duplicates (technical replicates). Threshold concentrations, defined as lowest substance concentrations leading to statistically significant elevated fluorescence changes in receptor-transfected cells compared with empty vector-transfected cells, were determined using SigmaPlot with Student’s t-test to evaluate statistical significance (p < 0.01).

Efficacy = maximal amplitude (ΔF/F) (TAS2R4, bile acids, mean): 0.1626 | Efficacy (maximal amplitude ΔF/F), individual data points (TAS2R4, bile acids, single replicates, listed as GCA): 0.1367 and 0.1786 and 0.1725 | Δ F/F (TAS2R4, conc. 0,01 mM): 0.01565 | Δ F/F (TAS2R4, conc. 0,1 mM): 0.106 | Δ F/F (TAS2R4, conc. 0,03 mM): 0.03923 | Δ F/F (TAS2R4, conc. 0,3 mM): 0.1626 | Δ F/F (TAS2R4, conc. 0,001 mM): 0.006443 | Δ F/F (TAS2R4, conc. 0,003 mM): 0.006613 | RLU, fluorescence trace (Time (s) 0): 0 RLU | RLU, fluorescence trace (Time (s) 2): 4.14 RLU | RLU, fluorescence trace (Time (s) 4): -20.6032 RLU | RLU, fluorescence trace (Time (s) 6): -25.8877 RLU | RLU, fluorescence trace (Time (s) 8): -29.799 RLU | RLU, fluorescence trace (Time (s) 12): -12.9106 RLU | RLU, fluorescence trace (Time (s) 14): -6.673 RLU | RLU, fluorescence trace (Time (s) 16): -18.2287 RLU | RLU, fluorescence trace (Time (s) 18): -27.0676 RLU | RLU, fluorescence trace (Time (s) 18.766 (TCA, TLCA: 18.782)): -34.2066 RLU | RLU, fluorescence trace (Time (s) 20.781 (TCA, TLCA: 20.782)): -42.9373 RLU | RLU, fluorescence trace (Time (s) 22.781 (TCA, TLCA: 22.782)): 15.1075 RLU | RLU, fluorescence trace (Time (s) 24.781 (TCA, TLCA: 24.782)): 91.6518 RLU | RLU, fluorescence trace (Time (s) 26.781 (TCA, TLCA: 26.782)): 179.573 RLU | RLU, fluorescence trace (Time (s) 28.781 (TCA, TLCA: 28.782)): 304.257 RLU | RLU, fluorescence trace (Time (s) 30.781 (TCA, TLCA: 30.782)): 388.704 RLU | RLU, fluorescence trace (Time (s) 32.781 (TCA, TLCA: 32.782)): 524.444 RLU | RLU, fluorescence trace (Time (s) 34.781 (TCA, TLCA: 34.782)): 591.908 RLU | RLU, fluorescence trace (Time (s) 36.781 (TCA, TLCA: 36.782)): 664.761 RLU | RLU, fluorescence trace (Time (s) 38.781 (TCA, TLCA: 38.782)): 747.083 RLU | RLU, fluorescence trace (Time (s) 40.781 (TCA, TLCA: 40.782)): 780.753 RLU | RLU, fluorescence trace (Time (s) 42.781 (TCA, TLCA: 42.782)): 820.227 RLU | RLU, fluorescence trace (Time (s) 44.781 (TCA, TLCA: 44.782)): 854.725 RLU | RLU, fluorescence trace (Time (s) 46.781 (TCA, TLCA: 46.782)): 885.437 RLU | RLU, fluorescence trace (Time (s) 48.781 (TCA, TLCA: 48.782)): 869.015 RLU | RLU, fluorescence trace (Time (s) 50.781 (TCA, TLCA: 50.782)): 904.393 RLU | RLU, fluorescence trace (Time (s) 52.781 (TCA, TLCA: 52.782)): 904.624 RLU | RLU, fluorescence trace (Time (s) 54.781 (TCA, TLCA: 54.782)): 934.879 RLU | RLU, fluorescence trace (Time (s) 56.781 (TCA, TLCA: 56.782)): 910.42 RLU | RLU, fluorescence trace (Time (s) 58.781 (TCA, TLCA: 58.782)): 920.415 RLU | RLU, fluorescence trace (Time (s) 60.781 (TCA, TLCA: 60.782)): 939.945 RLU | RLU, fluorescence trace (Time (s) 62.781 (TCA, TLCA: 62.782)): 894.354 RLU | RLU, fluorescence trace (Time (s) 64.781 (TCA, TLCA: 64.782)): 892.209 RLU | RLU, fluorescence trace (Time (s) 66.781 (TCA, TLCA: 66.782)): 883.058 RLU | RLU, fluorescence trace (Time (s) 68.781 (TCA, TLCA: 68.782)): 897.442 RLU | RLU, fluorescence trace (Time (s) 70.781 (TCA, TLCA: 70.782)): 864.365 RLU | RLU, fluorescence trace (Time (s) 72.781 (TCA, TLCA: 72.782)): 888.719 RLU | RLU, fluorescence trace (Time (s) 74.781 (TCA, TLCA: 74.782)): 833.342 RLU | RLU, fluorescence trace (Time (s) 76.781 (TCA, TLCA: 76.782)): 856.102 RLU | RLU, fluorescence trace (Time (s) 78.781 (TCA, TLCA: 78.782)): 820.296 RLU | RLU, fluorescence trace (Time (s) 80.781 (TCA, TLCA: 80.782)): 794.483 RLU | RLU, fluorescence trace (Time (s) 82.781 (TCA, TLCA: 82.782)): 818.87 RLU | RLU, fluorescence trace (Time (s) 84.781 (TCA, TLCA: 84.782)): 756.604 RLU | RLU, fluorescence trace (Time (s) 86.781 (TCA, TLCA: 86.782)): 753.892 RLU | RLU, fluorescence trace (Time (s) 88.781 (TCA, TLCA: 88.782)): 732.115 RLU | RLU, fluorescence trace (Time (s) 90.781 (TCA, TLCA: 90.782)): 726.989 RLU | RLU, fluorescence trace (Time (s) 92.781 (TCA, TLCA: 92.782)): 713.242 RLU | RLU, fluorescence trace (Time (s) 94.781 (TCA, TLCA: 94.782)): 703.281 RLU | RLU, fluorescence trace (Time (s) 96.781 (TCA, TLCA: 96.782)): 696.734 RLU | RLU, fluorescence trace (Time (s) 98.781 (TCA, TLCA: 98.782)): 653.577 RLU | RLU, fluorescence trace (Time (s) 100.781 (TCA, TLCA: 100.782)): 678.663 RLU | RLU, fluorescence trace (Time (s) 102.781 (TCA, TLCA: 102.782)): 623.965 RLU | RLU, fluorescence trace (Time (s) 104.781 (TCA, TLCA: 104.782)): 624.137 RLU | RLU, fluorescence trace (Time (s) 106.781 (TCA, TLCA: 106.782)): 630.047 RLU | RLU, fluorescence trace (Time (s) 108.781 (TCA, TLCA: 108.782)): 571.666 RLU | RLU, fluorescence trace (Time (s) 110.781 (TCA, TLCA: 110.782)): 598.289 RLU | RLU, fluorescence trace (Time (s) 112.781 (TCA, TLCA: 112.782)): 583.918 RLU | RLU, fluorescence trace (Time (s) 114.781 (TCA, TLCA: 114.782)): 556.25 RLU | RLU, fluorescence trace (Time (s) 116.781 (TCA, TLCA: 116.782)): 588.773 RLU | RLU, fluorescence trace (Time (s) 118.781 (TCA, TLCA: 118.782)): 548.501 RLU | RLU, fluorescence trace (Time (s) 120.781 (TCA, TLCA: 120.782)): 507.386 RLU | RLU, fluorescence trace (Time (s) 122.781 (TCA, TLCA: 122.782)): 507.852 RLU | RLU, fluorescence trace (Time (s) 124.781 (TCA, TLCA: 124.782)): 509.201 RLU | RLU, fluorescence trace (Time (s) 126.781 (TCA, TLCA: 126.782)): 489.381 RLU | RLU, fluorescence trace (Time (s) 128.781 (TCA, TLCA: 128.782)): 446.993 RLU | RLU, fluorescence trace (Time (s) 130.781 (TCA, TLCA: 130.782)): 463.894 RLU | RLU, fluorescence trace (Time (s) 132.781 (TCA, TLCA: 132.782)): 448.798 RLU | RLU, fluorescence trace (Time (s) 134.781 (TCA, TLCA: 134.782)): 427.428 RLU | RLU, fluorescence trace (Time (s) 136.781 (TCA, TLCA: 136.782)): 402.196 RLU | RLU, fluorescence trace (Time (s) 137.547): 379.772 RLU | RLU, fluorescence trace (Time (s) 143.547): 379.834 RLU | RLU, fluorescence trace (Time (s) 149.547): 308.948 RLU | RLU, fluorescence trace (Time (s) 155.547): 318.726 RLU | RLU, fluorescence trace (Time (s) 161.547): 303.241 RLU | RLU, fluorescence trace (Time (s) 167.547): 312.32 RLU | RLU, fluorescence trace (Time (s) 173.547): 281.168 RLU | RLU, fluorescence trace (Time (s) 179.547): 242.535 RLU | RLU, fluorescence trace (Time (s) 185.547): 225.911 RLU | RLU, fluorescence trace (Time (s) 191.547): 214.607 RLU | RLU, fluorescence trace (Time (s) 197.547): 221.087 RLU | RLU, fluorescence trace (Time (s) 203.547): 189.795 RLU | RLU, fluorescence trace (Time (s) 209.547): 203.53 RLU | RLU, fluorescence trace (Time (s) 215.547): 197.074 RLU | RLU, fluorescence trace (Time (s) 221.547): 173.704 RLU | RLU, fluorescence trace (Time (s) 227.547): 160.915 RLU | RLU, fluorescence trace (Time (s) 233.547): 142.108 RLU | RLU, fluorescence trace (Time (s) 239.547): 141.876 RLU | RLU, fluorescence trace (Time (s) 245.547): 156.883 RLU | RLU, fluorescence trace (Time (s) 293.547): 127.131 RLU | RLU, fluorescence trace (Time (s) 299.547): 134.948 RLU | RLU, fluorescence trace (Time (s) 305.547): 119.109 RLU | RLU, fluorescence trace (Time (s) 311.547): 130.712 RLU | RLU, fluorescence trace (Time (s) 317.547): 94.0562 RLU | RLU, fluorescence trace (Time (s) 323.547): 123.872 RLU | RLU, fluorescence trace (Time (s) 329.547): 117.665 RLU | RLU, fluorescence trace (Time (s) 335.547): 137.018 RLU | RLU, fluorescence trace (Time (s) 341.547): 127.876 RLU | RLU, fluorescence trace (Time (s) 347.547): 133.973 RLU | RLU, fluorescence trace (Time (s) 353.547): 116.889 RLU | RLU, fluorescence trace (Time (s) 359.547): 102.962 RLU | Activation threshold concentration TAS2R4 (lowest concentration with significantly increased fluorescence vs empty vector (p < 0.01)): 30 µM
Structure (SMILES): C[C@H](CCC(=O)NCC(=O)O)[C@H]1CC[C@H]2[C@@H]3[C@H](O)C[C@@H]4C[C@H](O)CC[C@]4(C)[C@H]3C[C@H](O)[C@]12C [Glycocholic Acid, glycocholic acid]
